Measurements taken from patent US5556854A, “Pyridopyrimidinediones, processes for their preparation and their use as drugs” (Hoechst Aktiengesellschaft, priority 1993, dated 1996).

System: ischemic skeletal muscle (gastrocnemius-plantaris-soleus group)
Assay: Contractility of the skeletal muscle after chronic ischemia (PVD fatigue model)
Type: in vivo, male Wistar rats
Details: PVD fatigue model: 6 mg/kg po, 7 days; after 5 minutes of stimulation, 24 h after last administration
Text: B) Action on the contractility of the skeletal muscle after chronic ischemia Ideas about the pathophysiology of chronic peripheral arterial occlusive disease have changed in recent years as interest has shifted increasingly from the macrocirculation to the microcirculation=disorders in the microcirculation manifest themselves in an inadequate supply of substrates with consequent tissue ischemia, which in turn leads to impairment of the function of the extremity in question. The compounds according to the invention were tested for their function-improving action by means of measurements of the contractile force in the ischemic skeletal muscle using the experimental set-up described below. The experimental animals used were male Wistar rats with a body weight of 380 to 410 g. With the animals under hexobarbital narcosis (®[…] Sodium, 200 mg/kg body weight ip), a monolateral ligature of the right femoral artery was made in the groin. After dusting with penicillin sulfonamide powder for the antibiotic protection of the wound, the small surgical wound was closed and the animals were observed continuously until fully awake. One week later, oral administration of the substance with a stomach tube was started (6 mg/kg body weight, carboxymethyl cellulose sodium suspension) and was continued for 7 days (single administration per day, ca. 7.30 am to 8.30 am). The contractile force was measured 24 h after the last administration of the substance so as to exclude acute effects, the experimental protocol being as follows: The animals were narcotized with ®Nembutal (pentobarbital sodium, 35 mg/kg body weight ip), the muscles of the extremity in question were exposed (gastrocnemius-plantaris-soleus group) and the tendon was connected to a force transducer with a preload of 50 g. A superfusion with isotonic solution (37° C.) served to avoid dehydration and cooling. The mean arterial blood pressure was recorded continuously via a cannulated carotid artery with the aid of a hemodynamometer in order to monitor the physiological state of the animals during the experiment. All the animals breathed spontaneously through an inserted endotracheal tube. After these preparations had been made, the muscle was caused to contract by direct electrical stimulation (2.5 mA, 2 Hz) (Stimulator I, Hugo Sachs, Federal Republic of Germany). The measurement parameter used for the action of the preparation was the absolute contractile force in grams after 5 minutes of stimulation. The change in the contractile force in comparison with the ischemic control muscle is given as the percentage change at this time (see Table 2).

Row | SMILES | Change in the contractile force in comparison with the ischemic control muscle
1 | Cn1c(=O)[nH]c2c(c1=O)CN(CCCO)CC2 [Compound 37] | +45%
2 | Cl.Cn1c(=O)[nH]c2c(c1=O)CN(Cc1ccccc1)CC2 [Compound 2, 6-Benzyl-3-methyl-5,6,7,8-tetrahydro-1H-pyrido[4,3-d]-pyrimidine-2,4-dione hydrochloride] | +136%
3 | O=c1[nH]c2c(c(=O)[nH]1)CN(Cc1ccccc1)CC2 [Compound 23] | +129%
4 | C=C(C)CN1CCc2[nH]c(=O)n(C)c(=O)c2C1 [Compound 26] | +114%
5 | Cn1c(=O)[nH]c2c(c1=O)CN(C(C(=O)O)c1ccccc1Cl)CC2 (stereo not shown) [Compound 20] | +137%
6 | Cn1c(=O)[nH]c2c(c1=O)CN(CCO)CC2 [Compound 8, 6-(2-Hydroxyethyl)-3-methyl-5,6,7,8-tetrahydro-1H-pyrido[4,3-d]pyrimidine-2,4-dione] | +151%
7 | CCn1c2c(c(=O)n(C)c1=O)CN(Cc1ccccc1Cl)CC2 [Compound 16] | +148%
